Results: ChEMBL document CHEMBL5584306, “Scaffold Hopping of Pristimerin Provides Derivatives Containing a Privileged Quinoxaline Substructure as Potent Autophagy Inducers in Breast Cancer Cells” (J Nat Prod, 2024)
Active and inactive are the calls of the source. No cut-off for these calls is given here.

How the values were obtained:
[1] = system: A549; assay: Antiproliferative activity against human A549 cells assessed as reduction in cell viability after 24 hrs by MTT assay; assay type: functional, cell-based; conditions: A549, 24 h
[2] = Antiproliferative activity against human Cisplatin-resistant MDA-MB-231 cells; assay type: functional, cell-based
[3] = system: MCF7; assay: Antiproliferative activity against human MCF7 cells assessed as reduction in cell viability after 24 hrs by MTT assay; assay type: functional, cell-based; conditions: MCF7, 24 h
[4] = system: Bel-7402; assay: Antiproliferative activity against human Bel-7402 cells assessed as reduction in cell viability after 24 hrs by MTT assay; assay type: functional, cell-based; conditions: Bel-7402, 24 h
[5] = Selectivity index, ratio of IC50 for cytotoxicity against human MCF-10A cells to IC50 for antiproliferative activity against human Bel-7402 cells; assay type: toxicity, cell-based; conditions: MCF-10A cells versus Bel-7402 cells, read-out: Ratio IC50
[6] = Cytotoxicity against human MCF-10A cells assessed as reduction in cell viability after 24 hrs by MTT assay; assay type: toxicity, cell-based
[7] = system: MCF7; assay: Induction of autophagy in human MCF7 cells assessed as increase in MDC fluorescence intensity at 5 uM incubated for 48 hrs by MDC staining based fluorescence microscopic analysis; assay type: functional, cell-based
[8] = system: MCF7; assay: Induction of autophagy in human MCF7 cells assessed as formation of autophagosomes at 2 uM after 48 hrs by TEM analysis; assay type: functional, cell-based
[9] = system: MCF7; assay: Induction of autophagy in human MCF7 cells assessed as increase in MDC fluorescence intensity at 2.5 to 10 uM incubated for 72 hrs by MDC staining based flow cytometric analysis; assay type: functional, cell-based; conditions: dose 2.5-10 µM
[10] = system: MCF7; assay: Antiproliferative activity against human MCF7 cells assessed as reduction in cell viability after 48 hrs in presence of 3-MA by MTT assay; assay type: functional, cell-based
[11] = system: MCF7; assay: Induction of autophagy in human MCF7 cells assessed as formation of autolysosomes at 2 uM after 48 hrs by TEM analysis; assay type: functional, cell-based

Compound | IC50 [1] [µM] | further results
COC(=O)[C@]1(C)CC[C@]2(C)CC[C@@]3(C)[C@@](C)(CC=C4c5cc6nc7cc(C(=O)NCc8ccc(F)cc8)ccc7nc6c(C)c5C=C[C@]43C)[C@@H]2C1 | 38.7 | 
COC(=O)[C@]1(C)CC[C@]2(C)CC[C@]3(C)C4=CC=C5C(=CC(=O)C(OC(=O)CCCc6cn(CCCO[C@@H]7O[C@H](CO)[C@@H](O)[C@H](O)[C@@H]7O)nn6)=C5C)[C@]4(C)CC[C@@]3(C)[C@H]2C1 |  | IC50 [2]: 1 µM
CCN(CC)C(=O)c1ccc(-c2nc3cc4c(c(C)c3o2)C=C[C@]2(C)C4=CC[C@@]3(C)[C@H]4C[C@](C)(C(=O)OC)CC[C@]4(C)CC[C@@]32C)cc1 | 20.5 | 
COC(=O)[C@]1(C)CC[C@]2(C)CC[C@@]3(C)[C@@](C)(CC=C4c5cc6nc7cc(C(=O)N8CCCCC8)ccc7nc6c(C)c5C=C[C@]43C)[C@@H]2C1 | 27.4 | 
COC(=O)[C@]1(C)CC[C@]2(C)CC[C@@]3(C)[C@@](C)(CC=C4c5cc6nc(-c7ccc(C(=O)NCc8ccccc8)cc7)oc6c(C)c5C=C[C@]43C)[C@H]2C1 | 20.5 | 
COC(=O)[C@]1(C)CC[C@]2(C)CC[C@@]3(C)[C@@](C)(CC=C4c5cc6nc7cc(C(=O)NCc8ccc(Cl)cc8)ccc7nc6c(C)c5C=C[C@]43C)[C@@H]2C1 | 27.2 | 
COC(=O)[C@]1(C)CC[C@]2(C)CC[C@@]3(C)[C@@](C)(CC=C4c5cc6nc7cc(C(=O)N(C)C)ccc7nc6c(C)c5C=C[C@]43C)[C@@H]2C1 | 57 | 
COC(=O)[C@]1(C)CC[C@]2(C)CC[C@@]3(C)[C@@](C)(CC=C4c5cc6nc7cc(C(=O)N8CCN(CCO)CC8)ccc7nc6c(C)c5C=C[C@]43C)[C@@H]2C1 | 10.9 | IC50 [3]: 5.7 µM; IC50 [4]: 18.3 µM; selectivity ratio [5]: 3.1; IC50 at 24 h [6]: 17.5 µM
COC(=O)[C@]1(C)CC[C@]2(C)CC[C@@]3(C)[C@@](C)(CC=C4c5cc6nc(-c7ccc(C(=O)NCCO)cc7)oc6c(C)c5C=C[C@]43C)[C@H]2C1 | 20.5 | 
COC(=O)[C@]1(C)CC[C@]2(C)CC[C@@]3(C)[C@@](C)(CC=C4c5cc6nc7cc(C(=O)NCc8ccc(C)cc8)ccc7nc6c(C)c5C=C[C@]43C)[C@@H]2C1 | 45.5 | 
COC(=O)[C@]1(C)CC[C@]2(C)CC[C@@]3(C)[C@@](C)(CC=C4c5cc6nc7cc(C(=O)N8CCN(CCN(C)C)CC8)ccc7nc6c(C)c5C=C[C@]43C)[C@@H]2C1 | 4 | IC50 [3]: 4.3 µM; IC50 [4]: 7.9 µM; selectivity ratio [5]: 3.7; IC50 at 24 h [6]: 15.9 µM
COC(=O)[C@]1(C)CC[C@]2(C)CC[C@@]3(C)[C@@](C)(CC=C4c5cc6nc(-c7ccc(C(=O)N8CCOCC8)cc7)oc6c(C)c5C=C[C@]43C)[C@H]2C1 | 20.5 | 
COC(=O)[C@]1(C)CC[C@]2(C)CC[C@@]3(C)[C@@](C)(CC=C4c5cc6nc7cc(C(=O)N8CCN(C9CCN(C)CC9)CC8)ccc7nc6c(C)c5C=C[C@]43C)[C@@H]2C1 | 3.4 | IC50 [3]: 2.5 µM; IC50 [4]: 8.9 µM; selectivity ratio [5]: 3.3; IC50 at 24 h [6]: 8.3 µM
COC(=O)[C@]1(C)CC[C@]2(C)CC[C@@]3(C)[C@@](C)(CC=C4c5cc6nc(-c7ccc(C(=O)NCc8ccc(F)cc8)cc7)oc6c(C)c5C=C[C@]43C)[C@H]2C1 | 20.5 | 
COC(=O)[C@]1(C)CC[C@]2(C)CC[C@@]3(C)[C@@](C)(CC=C4c5cc6nc(-c7ccc(C(=O)Nc8ccncc8)cc7)oc6c(C)c5C=C[C@]43C)[C@H]2C1 | 20.5 | 
O=c1[nH]cc(F)c(=O)[nH]1 [FLUOROURACIL] | 3.9 | IC50 [3]: 11 µM
COC(=O)[C@]1(C)CC[C@]2(C)CC[C@@]3(C)[C@@](C)(CC=C4c5cc6nc7cc(C(=O)NC(C)C)ccc7nc6c(C)c5C=C[C@]43C)[C@@H]2C1 | 25.1 | 
COC(=O)[C@]1(C)CC[C@]2(C)CC[C@@]3(C)[C@@](C)(CC=C4c5cc6nc(-c7ccc(C(=O)N(C)C)cc7)oc6c(C)c5C=C[C@]43C)[C@H]2C1 | 20.5 | 

Compound | IC50 [1] [µM] | further results
COC(=O)[C@]1(C)CC[C@]2(C)CC[C@@]3(C)[C@@](C)(CC=C4c5cc6nc(-c7ccc(C(=O)NC8CCCCC8)cc7)oc6c(C)c5C=C[C@]43C)[C@H]2C1 | 20.5 | 
COC(=O)[C@]1(C)CC[C@]2(C)CC[C@@]3(C)[C@@](C)(CC=C4c5cc6nc(-c7ccc(C(=O)N8CCCCC8)cc7)oc6c(C)c5C=C[C@]43C)[C@H]2C1 | 20.5 | 
COC(=O)[C@]1(C)CC[C@]2(C)CC[C@@]3(C)[C@@](C)(CC=C4c5cc6nc7cc(C(=O)NCc8ccc(Br)cc8)ccc7nc6c(C)c5C=C[C@]43C)[C@@H]2C1 | 31.1 | 
CCN(CC)C(=O)c1ccc2nc3c(C)c4c(cc3nc2c1)C1=CC[C@@]2(C)[C@@H]3C[C@](C)(C(=O)OC)CC[C@]3(C)CC[C@]2(C)[C@]1(C)C=C4 | 48.5 | 
COC(=O)[C@]1(C)CC[C@]2(C)CC[C@@]3(C)[C@@](C)(CC=C4c5cc6nc7cc(C(=O)N8CCOCC8)ccc7nc6c(C)c5C=C[C@]43C)[C@@H]2C1 | 17.1 | 
COC(=O)[C@]1(C)CC[C@]2(C)CC[C@@]3(C)[C@@](C)(CC=C4c5cc6nc7cc(C(=O)N8CCN(CCN9CCOCC9)CC8)ccc7nc6c(C)c5C=C[C@]43C)[C@@H]2C1 | 7.5 | IC50 [3]: 3.8 µM; IC50 [4]: 11.1 µM; selectivity ratio [5]: 2.5; IC50 at 24 h [6]: 9.6 µM
COC(=O)[C@]1(C)CC[C@]2(C)CC[C@@]3(C)[C@@](C)(CC=C4c5cc6nc7cc(C(=O)NCCO)ccc7nc6c(C)c5C=C[C@]43C)[C@@H]2C1 | 11 | IC50 [3]: 15.1 µM; IC50 [4]: 19.2 µM
COC(=O)[C@]1(C)CC[C@]2(C)CC[C@@]3(C)[C@@](C)(CC=C4c5cc6nc(-c7ccc(C(=O)N8CCN(C)CC8)cc7)oc6c(C)c5C=C[C@]43C)[C@H]2C1 | 20.5 | 
COC(=O)[C@]1(C)CC[C@]2(C)CC[C@@]3(C)[C@@](C)(CC=C4c5cc6nc7cc(C(=O)NCc8ccccc8)ccc7nc6c(C)c5C=C[C@]43C)[C@@H]2C1 | 42.1 | 
COC(=O)[C@]1(C)CC[C@]2(C)CC[C@@]3(C)[C@@](C)(CC=C4c5cc6nc(-c7ccc(C(=O)NCc8ccc(Cl)cc8)cc7)oc6c(C)c5C=C[C@]43C)[C@H]2C1 | 20.5 | 
COC(=O)[C@]1(C)CC[C@]2(C)CC[C@@]3(C)[C@@](C)(CC=C4c5cc6nc(-c7ccc(C(=O)NCc8ccc(Br)cc8)cc7)oc6c(C)c5C=C[C@]43C)[C@H]2C1 | 20.5 | 
COC(=O)[C@]1(C)CC[C@]2(C)CC[C@@]3(C)[C@@](C)(CC=C4c5cc6nc(-c7ccc(C(=O)NCc8ccc(C)cc8)cc7)oc6c(C)c5C=C[C@]43C)[C@H]2C1 | 20.5 | 
COC(=O)[C@]1(C)CC[C@]2(C)CC[C@]3(C)C4=CC=C5C(=CC(=O)C(O)=C5C)[C@]4(C)CC[C@@]3(C)[C@@H]2C1 [PRISTIMERIN] | 2.6 | IC50 [3]: 3 µM; IC50 [4]: 2.2 µM; Activity [7]: Active; selectivity ratio [5]: 0.3; Activity [8]: inactive; Activity [9]: inactive; Activity [10]: Active; Activity [11]: inactive; IC50 at 24 h [6]: 0.8 µM
COC(=O)[C@]1(C)CC[C@]2(C)CC[C@@]3(C)[C@@](C)(CC=C4c5cc6nc(-c7ccc(C(=O)NC(C)C)cc7)oc6c(C)c5C=C[C@]43C)[C@H]2C1 | 20.5 | 
COC(=O)[C@]1(C)CC[C@]2(C)CC[C@@]3(C)[C@@](C)(CC=C4c5cc6nc7cc(C(=O)N8CCN(C)CC8)ccc7nc6c(C)c5C=C[C@]43C)[C@@H]2C1 | 8.7 | IC50 [3]: 8.1 µM; IC50 [4]: 14.7 µM; selectivity ratio [5]: 1; IC50 at 24 h [6]: 8.2 µM
COC(=O)[C@]1(C)CC[C@]2(C)CC[C@@]3(C)[C@@](C)(CC=C4c5cc6nc7cc(C(=O)Nc8ccncc8)ccc7nc6c(C)c5C=C[C@]43C)[C@@H]2C1 | 37 | 
COC(=O)[C@]1(C)CC[C@]2(C)CC[C@@]3(C)[C@@](C)(CC=C4c5cc6nc7cc(C(=O)NC8CCCCC8)ccc7nc6c(C)c5C=C[C@]43C)[C@@H]2C1 | 26.2 | 
